{"source": "patent US20200069691A1", "about": "“HETEROCYCLIC COMPOUNDS AS HIV PROTEASE INHIBITORS” (Merck Sharp & Dohme Corp., priority 2016, published 2020)", "biological_target": "T1, wild-type HIV-1 protease (Human immunodeficiency virus type 1 group M subtype B, UniProt P04585)", "T1 construct": "Escherichia coli expressed wild-type HIV-1 protease protein", "assay": "Assay for Inhibition of Microbial Expressed HIV Protease (peptide substrate cleavage, LC-MS/MS readout)", "type": "biochemical", "conditions": "E. coli expressed wild-type HIV-1 protease, mean of at least two independent experiments, read-out: HIV Pr Enzyme HIV1 PR IC50", "method_in_brief": "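E. coli-expressed wild-type HIV-1 protease ([…]) was preincubated with inhibitor 30 min at room temperature in pH 5.5 acetate buffer (100 mM NaCl, 0.1% BSA). Then 400 μM octapeptide substrate was added and reacted 1 h at 30 °C; inhibition came from LC-MS/MS product peak areas, mean of ≥2 experiments.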", "data": [{"smiles": "COC(=O)N1CCN(C(=O)c2ccnc(CN3C(=N)NC(c4ccc(F)cc4)(c4ccc(F)cc4)C3=O)c2)CC1", "note": "[Compound 404, methyl 4-[(2-{[4,4-bis(4-fluorophenyl)-2-imino-5-oxoimidazolidin-1-yl]methyl}pyridin-4-yl)carbonyl]piperazine-1-carboxylate]", "values": [{"measurement": "IC50", "value": 58.6, "unit": "nM"}]}, {"smiles": "CC(C)CC1(c2ccccc2)NC(=N)N(Cc2ccc(Cl)c(C(=O)N3Cc4nccnc4C3)c2)C1=O", "note": "(stereo not shown) [Compound 365, 3-[4-chloro-3-(5,7-dihydro-6H-pyrrolo[3,4-b]pyrazin-6-ylcarbonyl)benzyl]-2-imino-5-(2-methylpropyl)-5-phenylimidazolidin-4-one]", "values": [{"measurement": "IC50", "value": 4.87, "unit": "nM"}]}, {"smiles": "CN(C)C(=O)c1cccc(C2(c3ccc(F)cc3)NC(=N)N(Cc3cccc(C(=O)N4Cc5ccccc5C4)c3)C2=O)c1", "note": "(stereo not shown) [Compound 306, 3-{1-[3-(1,3-dihydro-2H-isoindol-2-ylcarbonyl)benzyl]-4-(4-fluorophenyl)-2-imino-5-oxoimidazolidin-4-yl}-N,N-dimethylbenzamide]", "values": [{"measurement": "IC50", "value": 47.4, "unit": "nM"}]}, {"smiles": "N=C1NC(c2ccccc2)(c2ccccc2)C(=O)N1Cc1cccc(C(=O)N2Cc3ccc(C(F)(F)F)cc3C2)c1", "note": "[Compound 233, 2-imino-5,5-diphenyl-3-(3-{[5-(trifluoromethyl)-1,3-dihydro-2H-isoindol-2-yl]carbonyl}benzyl)-imidazolidin-4-one]", "values": [{"measurement": "IC50", "value": 14, "unit": "nM"}]}, {"smiles": "CCCC1(c2ccccc2)NC(=N)N(Cc2cccc(C(=O)N3Cc4cnc(C)nc4C3)c2)C1=O", "note": "(stereo not shown) [Compound 345, 2-imino-3-{3-[(2-methyl-5,7-dihydro-6H-pyrrolo[3,4-d]pyrimidin-6-yl)carbonyl]benzyl}-5-phenyl-5-propylimidazolidin-4-one]", "values": [{"measurement": "IC50", "value": 81.9, "unit": "nM"}]}, {"smiles": "Cc1cc(CN2C(=N)NC(c3ccc(F)cc3)(c3ccc(F)cc3)C2=O)cc(C(=O)N2Cc3nccnc3C2)n1", "note": "[Compound 406, 3-{[2-(5,7-dihydro-6H-pyrrolo[3,4-b]pyrazin-6-ylcarbonyl)-6-methylpyridin-4-yl]methyl}-5,5-bis(4-fluorophenyl)-2-iminoimidazolidin-4-one]", "values": [{"measurement": "IC50", "value": 10.6, "unit": "nM"}]}, {"smiles": "CC(C)CC1(c2cccc(F)c2)NC(=N)N(Cc2cccc(C(=O)N3Cc4nccnc4C3)c2)C1=O", "note": "(stereo not shown) [Compound 210, 3-[3-(5,7-dihydro-6H-pyrrolo[3,4-b]pyrazin-6-ylcarbonyl)benzyl]-5-(3-fluorophenyl)-2-imino-5-(2-methylpropyl)imidazolidin-4-one]", "values": [{"measurement": "IC50", "value": 9.12, "unit": "nM"}]}, {"smiles": "CC(C)CC1(c2ccccc2)NC(=N)N(Cc2ccc(Cl)c(C(=O)N3Cc4cncnc4C3)c2)C1=O", "note": "(stereo not shown) [Compound 373, 3-[4-chloro-3-(5,7-dihydro-6H-pyrrolo[3,4-d]pyrimidin-6-ylcarbonyl)benzyl]-2-imino-5-(2-methylpropyl)-5-phenylimidazolidin-4-one]", "values": [{"measurement": "IC50", "value": 6.93, "unit": "nM"}]}, {"smiles": "N=C1NC(c2ccc(F)cc2)(c2ccc(F)cc2)C(=O)N1Cc1cccc(C(=O)N2CCN(c3ncccn3)CC2)c1", "note": "[Compound 280, 5,5-bis(4-fluorophenyl)-2-imino-3-{3-[(4-pyrimidin-2-ylpiperazin-1-yl)carbonyl]benzyl} imidazolidin-4-one]", "values": [{"measurement": "IC50", "value": 31, "unit": "nM"}]}, {"smiles": "COC(=O)N1CCN(C(=O)c2cccc(CN3C(=N)NC(CC(C)C)(c4ccc(F)cc4)C3=O)c2)CC1", "note": "(stereo not shown) [Compound 288, methyl 4-[(3-{[4-(4-fluorophenyl)-2-imino-4-(2-methylpropyl)-5-oxoimidazolidin-1-yl]methyl}phenyl)carbonyl] piperazine-1-carboxylate]", "values": [{"measurement": "IC50", "value": 35.3, "unit": "nM"}]}, {"smiles": "COC(=O)N1CCN(C(=O)c2ccnc(CN3C(=N)NC(CCC(C)C)(c4ccccc4)C3=O)c2)CC1", "note": "(stereo not shown) [Compound 405, methyl 4-[(2-{[2-imino4-(3-methylbutyl)-5-oxo-4-phenylimidazolidin-1-yl]methyl}pyridin-4-yl)carbonyl]piperazine-1-carboxylate]", "values": [{"measurement": "IC50", "value": 81.1, "unit": "nM"}]}, {"smiles": "CN1CCN(C(=O)c2cccc(CN3C(=N)NC(c4ccccc4)(c4ccccc4)C3=O)c2)CC1=O", "note": "[Compound 358, 4-({3-[(2-imino-5-oxo-4,4-diphenylimidazolidin-1-yl)methyl]phenyl}carbonyl)-1-methylpiperazin-2-one]", "values": [{"measurement": "IC50", "value": 93.6, "unit": "nM"}]}, {"smiles": "CC(C)CC[C@]1(c2ccc(F)cc2)NC(=N)N(C(c2ccc(C(F)(F)F)c(C(=O)N3Cc4nccnc4C3)c2)C2CCCC2)C1=O", "note": "(stereo partly drawn) [Compound 101, (5R)-3-{cyclopentyl[3-(5,7-dihydro-6H-pyrrolo[3,4-b]pyrazin-6-ylcarbonyl)-4-(trifluoromethyl)-phenyl]methyl}-5-(4-fluorophenyl)-2-imino-5-(3-methylbutyl)-imidazolidin-4-one]", "values": [{"measurement": "IC50", "value": 23.2, "unit": "nM"}]}, {"smiles": "COC(=O)Nc1ncc2c(n1)CN(C(=O)c1cccc(CN3C(=N)N[C@](CCC(C)C)(c4ccccc4)C3=O)c1)C2", "note": "[Compound 183, methyl {6-[(3-{[(4R)-2-imino-4-(3-methylbutyl)-5-oxo-4-phenylimidazolidin-1-yl]methyl}phenyl)carbonyl]-6,7-dihydro-5H-pyrrolo[3,4-d]pyrimidin-2-yl}carbamate]", "values": [{"measurement": "IC50", "value": 2.26, "unit": "nM"}]}, {"smiles": "CC(C)CC[C@]1(c2ccccc2)NC(=N)N(C(CC(C)C)c2ccc(C(F)(F)F)c(C(=O)N3Cc4nccnc4C3)c2)C1=O", "note": "(stereo partly drawn) [Compound 5, (5R)-3-{1-[3-(5,7-dihydro-6H-pyrrolo[3,4-b]pyrazin-6-ylcarbonyl)-4-(trifluoromethyl)-phenyl]-3-methylbutyl}-2-imino-5-(3-methylbutyl)-5-phenylimidazo-lidin-4-one]", "values": [{"measurement": "IC50", "value": 0.26, "unit": "nM"}]}, {"smiles": "N=C1NC(c2ccc(F)cc2)(c2ccc(F)cc2)C(=O)N1Cc1ccc(C(F)(F)F)c(C(=O)N2Cc3cncnc3C2)c1", "note": "[Compound 138, 3-[3-(5,7-dihydro-6H-pyrrolo[3,4-d]pyrimidin-6-ylcarbonyl)-4-(trifluoromethyl)benzyl]-5,5-bis(4-fluorophenyl)-2-iminoimidazolidin-4-one]", "values": [{"measurement": "IC50", "value": 2.78, "unit": "nM"}]}, {"smiles": "N=C1NC(c2ccc(F)cc2)(c2ccc(F)cc2)C(=O)N1Cc1cccc(C(=O)N2Cc3cc(F)c(F)cc3C2)c1", "note": "[Compound 197, 3-{3-[(5,6-difluoro-l,3-dihydro-2H-isoindol-2-yl)carbonyl]benzyl}-5,5-bis(4-fluorophenyl)-2-iminoimidazolidin-4-one]", "values": [{"measurement": "IC50", "value": 5.25, "unit": "nM"}]}, {"smiles": "COc1ncc2c(n1)CN(C(=O)c1cccc(CN3C(=N)NC(c4ccc(F)cc4)(c4ccc(F)cc4)C3=O)c1)C2", "note": "[Compound 205, 5,5-bis(4-fluorophenyl)-2-imino-3-{3-[(2-methoxy-5,7-dihydro-6H-pyrrolo[3,4-d]pyrimidin-6-yl)carbonyl]benzyl} imidazolidin-4-one]", "values": [{"measurement": "IC50", "value": 7.67, "unit": "nM"}]}, {"smiles": "Cc1cccc(-c2ncc3c(n2)CN(C(=O)c2cc(CN4C(=N)N[C@](CCCC(F)(F)F)(c5ccc(F)cc5)C4=O)ccc2C(F)(F)F)C3)c1", "note": "[Compound 104, (5R)-5-(4-fluorophenyl)-2-imino-3-[3-{[2-(3-methylphenyl)-5,7-dihydro-6H-pyrrolo[3,4-d]pyrimidin-6-yl]carbonyl}-4-(trifluoromethyl)benzyl]-5-(4,4,4-trifluorobutyl)imidazolidin-4-one]", "values": [{"measurement": "IC50", "value": 24.2, "unit": "nM"}]}, {"smiles": "CC(C)CCC1(c2ccccc2)NC(=N)N(Cc2ccc(C(F)(F)F)c(C(=O)N3CCC(n4c(=O)[nH]c5ccccc54)CC3)c2)C1=O", "note": "(stereo not shown) [Compound 155, 1-(1-{[5-{[2-imino-4-(3-methylbutyl)-5-oxo-4-phenyl-imidazolidin-1-yl]methyl}-2-(trifluoromethyl)phenyl]carbonyl}piperidin-4-yl)-1,3-dihydro-2H-benzimidazol-2-one]", "values": [{"measurement": "IC50", "value": 11.3, "unit": "nM"}]}, {"smiles": "CC(C)CC1(c2ccccc2)NC(=N)N(Cc2cccc(C(=O)N3CCc4ccccc4C3)c2)C1=O", "note": "(stereo not shown) [Compound 318, 3-[3-(3,4-dihydroisoquinolin-2(1H)-ylcarbonyl)benzyl]-2-imino-5-(2-methyl-propyl)-5-phenylimidazolidin-4-one]", "values": [{"measurement": "IC50", "value": 56.2, "unit": "nM"}]}, {"smiles": "N=C1NC(c2ccccc2)(c2ccccc2)C(=O)N1Cc1cccc(C(=O)N2CCN(c3ccccc3Cl)CC2)c1", "note": "[Compound 238, 3-(3-{[4-(2-chlorophenyl)piperazin-1-yl]carbonyl}benzyl)-2-imino-5,5-diphenylimidazolidin-4-one]", "values": [{"measurement": "IC50", "value": 15, "unit": "nM"}]}, {"smiles": "N#Cc1ncc2c(n1)CN(C(=O)c1cc(CN3C(=N)N[C@](CCCC(F)(F)F)(c4ccc(F)cc4)C3=O)ccc1C(F)(F)F)C2", "note": "[Compound 58, 6-{[5-{[(4R)-4-(4-fluorophenyl)-2-imino-5-oxo-4-(4,4,4-trifluorobutyl)imidazolidin-1-yl]methyl}-2-(trifluoromethyl)-phenyl]carbonyl}-6,7-dihydro-5H-pyrrolo[3,4-d] pyrimidine-2-carbonitrile]", "values": [{"measurement": "IC50", "value": 6.43, "unit": "nM"}]}, {"smiles": "N=C1NC(c2ccccc2)(c2ccccc2)C(=O)N1Cc1cccc(C(=O)N2CCc3c(Cl)cccc3C2)c1", "note": "[Compound 281, 3-{3-[(5-chloro-3,4-dihydroisoquinolin-2(1H)-yl)carbonyl]benzyl}-2-imino-5,5-diphenylimidazolidin-4-one]", "values": [{"measurement": "IC50", "value": 31.1, "unit": "nM"}]}, {"smiles": "Cn1ncc2c1CN(C(=O)c1cccc(CN3C(=N)NC(c4ccccc4)(c4ccccc4)C3=O)c1)C2", "note": "[Compound 241, 2-imino-3-{3-[(1-methyl-4,6-dihydropyrrolo [3,4-c]pyrazol-5(1H)-yl)carbonyl]benzyl}-5,5-diphenylimidazolidin-4-one]", "values": [{"measurement": "IC50", "value": 15.6, "unit": "nM"}]}, {"smiles": "N=C1NC(c2ccccc2)(c2ccccc2)C(=O)N1Cc1cccc(C(=O)N2CCN(c3ncccn3)CC2)c1", "note": "[Compound 230, 2-imino-5,5-diphenyl-3-{3-[(4-pyrimidin-2-ylpiperazin-1-yl)carbonyl]benzyl} imidazolidin-4-one]", "values": [{"measurement": "IC50", "value": 13.1, "unit": "nM"}]}, {"smiles": "C=Cc1c(C(F)(F)F)nc2n1CCN(C(=O)c1cccc(CN3C(=N)NC(c4ccccc4)(c4ccccc4)C3=O)c1)C2", "note": "[Compound 297, 3-(3-{[3-ethenyl-2-(trifluoromethyl)-5,6-dihydroimidazo [1,2-a]pyrazin-7(8H)-yl]carbonyl}benzyl)-2-imino-5,5-diphenylimidazolidin-4-one]", "values": [{"measurement": "IC50", "value": 43.5, "unit": "nM"}]}, {"smiles": "N=C1NC(c2ccccc2)(c2ccccc2)C(=O)N1Cc1cc(C(=O)N2Cc3cncnc3C2)ccn1", "note": "[Compound 401, 3-{[4-(5,7-dihydro-6H-pyrrolo[3,4-d]pyrimidin-6-ylcarbonyl)pyridin-2-yl]methyl}-2-imino-5,5-diphenylimidazolidin-4-one]", "values": [{"measurement": "IC50", "value": 31.4, "unit": "nM"}]}]}
